Reference: patent US10441662B2, “Polymer, method for producing polymer, and drug conjugate” (Kawasaki Institute of Industrial Promotion, priority 2016, dated 2019)
pIC50: −log10 of the molar value. Structures can show the parent of a compound that is named as a salt. Where two headings read alike, the source gives them in different places.

Legend:
[1] = tested on: PC14 strain; assay: Cytotoxicity test against lung cancer cells, PC14
Description: (§1) The cytotoxicity test was performed on the K252a-H bonded aromatic polymer micelle and the K252a-H bonded aliphatic polymer micelle using the lung cancer cell strains listed in Table 4.
(§2) 2000 cells/50 μL of a cell solution was adjusted to have an appropriate amount, and 50 μL of the solution was each seeded to the […] of a 96-well plate. Only a culture medium (DMEM culture medium containing 10% FBS) was added to the raw 1. After the seeding, the 96-well plate was incubated for 24 hours.
(§3) 300 μL of a culture medium was added to each of 10 wells of the 24-well plate. 100 μL of the micelle solution was added to the well 1A of the 24-well plate and stirred by pipetting (approximately 10 times), and 100 μL of the micelle solution was transferred to the well 2B and stirred in the same manner as described above. The same operation was repeated 10 times, and micelle solutions having ten different concentrations were prepared.
(§4) 50 μL of each micelle solution adjusted in the above-described manner was added to the row 3 to the row 12 of a 96-well plate seeded with cancer cells in descending order of micelle concentrations of the solutions. Only 50 μL of a culture medium was added to the rows 1 and 2. Thereafter, the 96-well plate was incubated. After the incubation, the cells remained, the solutions in the wells were removed, and the cells in each well were washed with 200 μL of the culture medium. Finally, 100 μL of the culture medium was added to each well and the 96-well plate was incubated for 48 hours.
(§5) After 48 hours, 10 μL of a cell counting kit-8 solution (DOJINDO) was added to each well. The 96-well plate was incubated again, and the absorbance at a wavelength of 450 nm was measured after 30 minutes, 1 hour, and 2 hours.
The PC14.PE6 strain is a cancer cell strain (Yano et al., Oncology Research 9:573 to 579 (1997)) obtained by performing an operation of administering the PC14 strain to the tail vein of a mouse and establishing the cancer cells metastasized to the thoracic cavity six times. […]

[2] = tested on: PC14.PE6 strain; assay: Cytotoxicity test against lung cancer cells, PC14.PE6
Description: as §1, §2, §3, §4, §5
The PC14.PE6 strain is a cancer cell strain (Yano et al., Oncology Research 9:573 to 579 (1997)) obtained by performing an operation of administering the PC14 strain to the tail vein of a mouse and establishing the cancer cells metastasized to the thoracic cavity six times. Therefore, the PC14.PE6 strain is a cancer cell strain which is extremely metastatic and malignant.

[3] = Evaluation of maximum tolerated dose (MTD) of DAVBNH; assay type: in vivo, mouse
Description: DAVBNH was administered to mice (BALB/c Nude, female, 6 weeks old) four times (0 day, 3rd day, 6th day, 9th day) […], and the maximum tolerated dose (MTD) was evaluated. The administration groups were prepared as follows, and the number of mice in each group was set to 3.
Administration group 1: 3 mg/kg of DAVBNH
Administration group 2: 4 mg/kg of DAVBNH
Administration group 3: 6 mg/kg of DAVBNH

[4] = Evaluation of maximum tolerated dose (MTD) of drug conjugate; assay type: in vivo, mouse
Description: The drug was administered to mice (BALB/c Nude, female, 6 weeks old) four times (0 day, 3rd day, 6th day, 9th day) […], and the maximum tolerated dose (MTD) was evaluated. The administration groups were prepared as follows, and the number of mice in each group was set to 5.
Administration group 1: PBS (control)
Administration group 2: 2 mg/kg of DAVBNH (VinHyd)
Administration group 3: 2 mg/kg of DAVBNH bonded polymer micelle (Example 1)
Administration group 4: 4 mg/kg of DAVBNH bonded polymer micelle (Example 1)
Administration group 5: 16 mg/kg of DAVBNH bonded polymer micelle (Example 1)

[5] = tested on: pancreatic cancer cell strains; assay: Cytotoxicity test against pancreatic cancer cells; assay type: cell-based; conditions: FIG. 31
Description: The cytotoxicity test was performed on the K252a-H bonded aromatic polymer micelle and the K252a-H bonded aliphatic polymer micelle using various pancreatic cancer cell strains in the same manner as described above. The BXPC3-F3 strain is a metastatic strain which became malignant by performing an operation of establishing a cancer cell strain metastasized to the liver after orthotopic transplant into a mouse, three times. Further, KP-3L is a metastatic strain (available from the cell bank of National Institutes of Biomedical Innovation, Health and Nutrition JCRB) obtained by establishing a cancer cell strain metastasized to the liver after human liver metastatic pancreatic cancer was transplanted to the spleen of a nude mouse.

[6] = tested on: lung cancer cell strains listed in Table 4; assay: Cytotoxicity test against lung cancer cells; assay type: cell-based; conditions: FIG. 29
Excerpt: Further, in the following example, the used cell strains were purchased from the cell bank of American Type Culture. Collection, ATCC or National Institutes of Biomedical Innovation, Health and Nutrition (JCRB). PC14 PE6 was distributed from Profession Hosho (Tottori University). As the culture medium, DMEM, RPMI, or E-MEM was used unless otherwise specified. Gefitinib, Afatinib, Erlotinib, Cisplatin, Pemetrexed, and Gemicitabine were purchased from Funakoshi Co., Ltd. Osimertinib was purchased from Sellek Chemicals LLC.
Thereafter, the 96-well plate was incubated.

[7] = tested on: Flt3; assay: Hot spot kinase profiling; assay type: biochemical; conditions: 100 nM, ATP 10 μM
Description: (§6) The kinase profiling of K252a-H was performed using Monthly 202 mutant kinase panel by entrustment with Reaction Biology Corporation. The conditions for the kinase assay are as follows. KK252a was dissolved in DMSO and the assay was performed at 100 nM.
(§7) Buffer condition: 20 mM HEPES, pH of 7.5, 10 mM MgCl2, 1 mM EGTA, (in a case of being applicable, 2 mM MnCl2)

[8] = tested on: RET; assay: Hot spot kinase profiling; assay type: biochemical; conditions: 100 nM, ATP 10 μM
Description: as §6, §7

[9] = tested on: c-kit; assay: Hot spot kinase profiling; assay type: biochemical; conditions: 100 nM, ATP 10 μM
Description: as §6, §7

[10] = target: mutant kinases (list of FIG. 42); assay: Hot spot kinase profiling, Monthly 202 mutant kinase panel; assay type: biochemical; conditions: 100 nM, ATP 10 μM, mutant kinases listed in FIG. 42
Description: as §6, §7

[11] = target: T1, EGFR d746-750/T790M (Homo sapiens, UniProt P00533, DEL746-750/T790M); assay: Hot spot kinase profiling, EGFR mutation; assay type: biochemical; conditions: 100 nM, ATP 10 μM, FIG. 40
T1 construct: purchased Reaction Biology Corporation
Description: as §6, §7

[12] = target: T2, EGFR T790M (Homo sapiens, UniProt P00533, T790M); assay: Hot spot kinase profiling, EGFR mutation; assay type: biochemical; conditions: 100 nM, ATP 10 μM, FIG. 40
T2 construct: purchased Reaction Biology Corporation
Description: as §6, §7

[13] = target: T3, EGFR L858R (Homo sapiens, UniProt P00533, L858R); assay: Hot spot kinase profiling, EGFR mutation; assay type: biochemical; conditions: 100 nM, ATP 10 μM, FIG. 40
T3 construct: purchased Reaction Biology Corporation
Description: as §6, §7

[14] = target: T4, EGFR d746-750/T790M/C797S (Homo sapiens, UniProt P00533, C797S/DEL746-750/T790M); assay: Hot spot kinase profiling, EGFR mutation; assay type: biochemical; conditions: 100 nM, ATP 10 μM, FIG. 40
T4 construct: purchased Reaction Biology Corporation
Description: as §6, §7

[15] = tested on: mesothelioma cell strain MSTO-211H; assay: Cytotoxicity test against mesothelioma cells; assay type: cell-based; conditions: FIG. 33
Excerpt: Further, CDDP indicates Cisplatin serving as a target treatment drug for mesothelioma. Pemetrexed is also a target treatment drug for mesothelioma.

[16] = Solubilization test in water; assay type: physicochemical; conditions: distilled water, UV absorption spectrum of filtrate
Description: K252a-H powder was dissolved in distilled water or methanol at a ratio of 1 mg/mL and the solution was sufficiently mixed. Thereafter, the solution was filtered using a filter having a pore diameter of […]. The ultraviolet absorption spectrum of the filtrate prepared as described above was measured using a spectrophotometer (Jasco V670). Based on the results of FIG. 27, it was confirmed that K252a-H was only dissolved in water at a ratio of 1 μg/mL or less.
Meanwhile, the K252a-H bonded aromatic polymer micelle and the K252a-H bonded aliphatic polymer micelle were dissolved in water, and the concentration of K252a-H was measured using HPLC.

[17] = tested on: head and neck cancer cell strains; assay: Cytotoxicity test against head and neck cancer cells; assay type: cell-based; conditions: all head and neck cancer cell strains, FIG. 32
Description: The cytotoxicity test was performed on the K252a-H bonded aromatic polymer micelle and the K252a-H bonded aliphatic polymer micelle using various head and neck cancer cell strains in the same manner as described above. Further, CDDP indicates Cisplatin serving as a target treatment drug for head and neck cancer.

[18] = tested on: U87MG serving as a glioma cell strain; assay: Cytotoxicity test against brain tumor cells (cell-counting kit-8); assay type: cell-based; conditions: Homo sapiens, U-87 MG
Description: The in vitro cytotoxicity of the vinblastine sulfate and the drug conjugate (DAVBNH bonded polymer micelle of Example 1) was evaluated using cell-counting kit-8 with respect to U87MG serving as a glioma cell strain. The U87MG cells (3000 cells/well) were cultured in a DMEM medium containing 10% FBS using a 96-well plate. Thereafter, the U87MG cells were exposed to the vinblastine sulfate or the drug conjugate whose dose was different from that of the vinblastine sulfate. The cell survival rates after 48 hours and 72 hours from the exposure were acquired by measuring the formazan absorbance […] 450 nm.

[19] = mouse; cited from earlier work
[20] = malignant metastatic strain, compared with PC14

CN(C)C/C=C/C(=O)Nc1cc2c(Nc3ccc(F)c(Cl)c3)ncnc2cc1O[C@H]1CCOC1 [Afatinib]
cytotoxic activity against the PC14 strain ([1]; FIGS. 29 and 30): excellent cytotoxic activity | cytotoxic activity against the PC14.PE6 strain [2, 20]: significantly decreased

CC[C@]1(O)C[C@@H]2CN(CCc3c([nH]c4ccccc34)[C@@](C(=O)OC)(c3cc4c(cc3OC)N(C)[C@H]3[C@@](O)(C(=O)NN)[C@H](O)[C@]5(CC)C=CCN6CC[C@]43[C@@H]65)C2)C1 [DAVBNH, desacetyl vinblastine hydrazide]
weight loss ([3]; dose of 3 mg/kg, after only 25% of the treatment schedule): significant weight loss was observed | lethal dose ([3]; mice, four administrations): 6 mg/kg | weight loss ([4]; dose 2 mg/kg): a weight loss occurs | MTD ([4]; female, BALB/c Nude, mouse, in vivo, 2 mg/kg, mice, as used in Example 8): 2 mg/kg

C#Cc1cccc(Nc2ncnc3cc(OCCOC)c(OCCOC)cc23)c1 [Erlotinib]
effect on K-ras mutant strains and malignant metastatic strains [5]: not largely affected

CC12OC(CC1(O)C(=O)NN)n1c3ccccc3c3c4c(c5c6ccccc6n2c5c31)CNC4=O (centres unmarked) [Example K252a-H, K252a hydrazide]
cytotoxic activity against lung cancer having resistance to lung cancer treatment drugs of the related art [6]: excellent cytotoxic activity | inhibition of oncogene Flt3 [7]: strong inhibitor | inhibition of oncogene RET [8]: strong inhibitor | inhibition of oncogene c-kit [9]: strong inhibitor | kinase activity suppressed to [10]: ≤ 30% | activity against EGFR gatekeeper mutation d746-750/T790M [11]: specifically high activity | activity against EGFR gatekeeper mutation T790M [12]: specifically high activity | activity against EGFR gatekeeper mutation L858R [13]: specifically high activity | activity against EGFR gatekeeper mutation d746-750/T790M/C797S [14]: specifically high activity | cytotoxic activity compared with Cisplatin and Pemetrexed [15]: higher cytotoxic activity than that of Cisplatin and Pemetrexed | dissolved in water [16]: ≤ 1 µg/mL | effect on K-ras mutant strains and malignant metastatic strains [5]: effective for K-ras mutant strains and malignant metastatic strains | cytotoxic activity compared with Cisplatin [17]: higher cytotoxic activity against all head and neck cancer cell strains than that of Cisplatin | cytotoxic activity against the PC14.PE6 strain [2, 20]: increased

COc1cc2ncnc(Nc3ccc(F)c(Cl)c3)c2cc1OCCCN1CCOCC1 [Gefitinib]
cytotoxic activity against the PC14 strain [1]: excellent cytotoxic activity | cytotoxic activity against the PC14.PE6 strain [2]: significantly decreased

Nc1ccn([C@@H]2O[C@H](CO)[C@@H](O)C2(F)F)c(=O)n1 [Gemcitabine]
effect on K-ras mutant strains and malignant metastatic strains [5]: not largely affected

C=CC(=O)Nc1cc(Nc2nccc(-c3cn(C)c4ccccc34)n2)c(OC)cc1N(C)CCN(C)C [Osimertinib]
cytotoxic activity against the PC14 strain [1]: excellent cytotoxic activity | cytotoxic activity against the PC14.PE6 strain [2]: significantly decreased

CC[C@]1(O)C[C@@H]2CN(CCc3c([nH]c4ccccc34)[C@@](C(=O)OC)(c3cc4c(cc3OC)N(C)[C@H]3[C@@](O)(C(=O)OC)[C@H](OC(C)=O)[C@]5(CC)C=CCN6CC[C@]43[C@@H]65)C2)C1 [Vinblastine sulfate, vinblastine sulfate]
pIC50 ([18]; 48 hours from the exposure, read-out: IC50 48 hours): 8.85 | pIC50 ([18]; 72 hours from the exposure, read-out: IC50 72 hours): 8.77

CC[C@]1(O)C[C@@H]2CN(CCc3c([nH]c4ccccc34)[C@@](C(=O)OC)(c3cc4c(cc3OC)N(C)[C@H]3[C@@](O)(C(=O)OC)[C@H](OC(C)=O)[C@]5(CC)C=CCN6CC[C@]43[C@@H]65)C2)C1 [Vinblastine, vinblastine]
maximum tolerated dose [19]: 2 mg/kg
